Measured values published in US10036034B2, “Sequences involved in plant yield and methods of using” (NUtech Ventures, priority 2014, dated 2018).
Read-outs that look alike come from different tables or passages of the source. Marks after values point to notes of the source that are not given here.

How the values were obtained:
P76 and TL seedlings = experiment: Effect of GA biosynthesis inhibitor Paclobutrazol (PAC) on lateral root density of wheat seedlings; type: in vivo; conditions: for Lateral Root Density / Number of Lateral Roots / Primary Root Length: 6 d old seedlings
Excerpt: (§1) For the early seedling stage root screening we used the cigar roll method (Zhu et al., 2006, TAG, 113:1-10). Similar sized seeds were germinated in a petri dish with moist paper towel for three days in the dark at 22-2S° C. Three seedlings per genotype were placed between two sheets of germination paper and rolled vertically. Three batches of 10 cigar rolls, totaling 30 plants per genotype were soaked in tap water and placed vertically in 1 L beaker filled with SO mL of water. Seedlings were grown in a controlled environment using a Percival Intellus Control System incubator (Model: I36VLC8) set at 25/27° C., 11.5/12.5 h day/night, 50/70% relative humidity and illumination of 80 μmols m^−2 sec^−1 during the duration of the experiments (Percival Scientific, Inc., Iowa). Water was added to each beaker twice daily to maintain the volume of 50 ml. All measurements were carried until 6 days after germination. Measurements after Day 6 can potentially be affected by limiting seed resources that drive seedling growth. For gene expression experiments, seedlings were harvested at 2, 4 and 6 days after germination. Root tissue samples were collected and snap frozen. It was hypothesized that the differences in biomass and yield between the Agropyron 7DL lines and the corresponding parental genotypes could be due to increased investment in root production, thus increasing acquisition of water and nutrients from the soil. We used a parent line, Pavon76 (P76), the 1-96-1 translocation line (TL), and a negative control (NC) for the translocation event for these experiments (FIG. 1). The total number of lateral roots (>1 mm) on the primary root axis were counted, and lateral root density was calculated by dividing the number of lateral roots on the primary root axis by the primary root length. Statistical significance was determined using a one-way ANOVA using Tukeys method. Transcriptomic comparison of the TL line and P76 indicated the differential regulation of several gibberellic acid associated genes (GSE42214; Table 8). Therefore, we tested the role of GA in lateral root regulation by treating TL and P76 seedlings with 104 GA3 in WW and LW conditions. […] Given the positive impact of exogenous GA on lateral roots, we measured the endogenous GA level in 6 d seedling roots. GA1 decreased in P76 in LW compared to WW (FIG. 13a). […] Higher GA levels in TL than P76 in LW is likely associated with its ability to maintain lateral root growth in LW. Auxin, which promotes lateral root growth, was not deficient in P76 relative to TL in LW, further supporting a GA-dependent mechanism for maintaining lateral root growth in TL (FIG. 21) (Orman-Ligeza et al., 2013, Trends Plant Sci., 18:459-67; Lavenus et al, 2013, Trends Plant Sci., 18:450-8).

LRD7Ag = experiment: qRT-PCR of LRD7Ag root transcript in GA pretreated TL seedlings; type: in vivo, wheat; conditions: GA pretreated TL seedlings in LW
Excerpt: FIG. 13 is data showing that gibberellins (GA) regulate lateral root formation in wheat. Panel (a) is a graph showing GA1 levels in P76 and TL roots in WW and LW conditions (mean±sd, n=30). “a” represents differences between WW and LW for a genotype and “b” represents significant genotypic differences under LW (p<0.05). Panel (b) is a graph showing expression of Agropyron allele of LRD7 (LRD7Ag) in the TL line in WW and LW conditions, with and without GA3 treatment. Transcript abundance was measured relative to WW, non-GA3 treated sample (mean±sd, n=3). “a” represents significant differences between WW and LW for roots with GA3 and no GA3 treatment, “b” represents a significant difference in response to GA treatment (p<0.05). […] Expression values were obtained relative to WW, non-GA3 treated sample as control (mean±sd, n=3). “a” represents significant differences between WW and LW for a genotype and “b” represents significant genotypic differences in LW conditions (p<0.05). […]
(§2) We used SuperScript VILO to synthesize cDNA for semi- and real-time quantitative PCR (qPCR) (Invitrogen Corp., Carlsbad, Calif.). […] Crossing point value (Cp or Ct), which was the point at which the fluorescence crosses the threshold, and melting curve analyses were obtained using the LightCycler Roche 480 Software v1.5. […]

TL and P76 seedlings = experiment: Effect of Gibberellin A3 (GA3) on lateral root density of wheat seedlings in WW and LW conditions; type: in vivo; conditions: for Lateral Root (PR) / Lateral Root Density / Primary Root Length: mean ± s.d., n = 30
Excerpt: as §1

LRD7Ta = experiment: qRT-PCR of LRD7Ta expression in GA pretreated P76 roots; type: in vivo, wheat
Excerpt: FIG. 13 is data showing that gibberellins (GA) regulate lateral root formation in wheat. Panel (a) is a graph showing GA1 levels in P76 and TL roots in WW and LW conditions (mean±sd, n=30). “a” represents differences between WW and LW for a genotype and “b” represents significant genotypic differences under LW (p<0.05). Panel (b) is a graph showing expression of Agropyron allele of LRD7 (LRD7Ag) in the TL line in WW and LW conditions, with and without GA3 treatment. Transcript abundance was measured relative to WW, non-GA3 treated sample (mean±sd, n=3). “a” represents significant differences between WW and LW for roots with GA3 and no GA3 treatment, “b” represents a significant difference in response to GA treatment (p<0.05). […] “a” represents significant differences between WW and LW for a genotype and “b” represents significant genotypic differences in LW conditions (p<0.05). […] The “a” represents significance between WW and LW and “b” indicates significance between CBO37 and RNAi or OE events or between P76 and TL under LW (p<0.05).
as §2

With `CC(C)(C)[C@@H](O)[C@@H](Cc1ccc(Cl)cc1)n1cncn1` (racemic) [PAC, Paclobutrazol] the “Lateral Root Density” value (P76 and TL seedlings; P76, LW (+PAC)) was 0.22 ± 0.1^b cm−1, the “Number of Lateral Roots” value (P76 and TL seedlings; P76, LW (+PAC)) was 5 ± 2^b and the “Primary Root Length” value (P76 and TL seedlings; P76, LW (+PAC)) was 24.2 ± 2.9 cm. The “Lateral Root Density” value (P76 and TL seedlings; P76, WW (+PAC)) was 0.45 ± 0.1^b cm−1, the “Number of Lateral Roots” value (P76 and TL seedlings; P76, WW (+PAC)) was 11 ± 2^b and the “Primary Root Length” value (P76 and TL seedlings; P76, WW (+PAC)) was 25.3 ± 3.0 cm. For the same compound, the “Lateral Root Density” value (P76 and TL seedlings; TL, LW (+PAC)) was 0.41 ± 0.1^b cm−1, the “Number of Lateral Roots” value (P76 and TL seedlings; TL, LW (+PAC)) was 10 ± 1^b and the “Primary Root Length” value (P76 and TL seedlings; TL, LW (+PAC)) was 23.9 ± 2.6 cm. The “Lateral Root Density” value (P76 and TL seedlings; TL, WW (+PAC)) was 0.49 ± 0.1^b cm−1, the “Number of Lateral Roots” value (P76 and TL seedlings; TL, WW (+PAC)) was 11 ± 2^b and the “Primary Root Length” value (P76 and TL seedlings; TL, WW (+PAC)) was 22.7 ± 2.4 cm. The “Effect on lateral root formation” value (P76 and TL seedlings; both P76 and TL) was “specifically suppressed lateral root formation”.

`C=C1C[C@]23C[C@@]1(O)CC[C@H]2[C@@]12C=C[C@H](O)[C@@](C)(C(=O)O1)[C@H]2[C@@H]3C(=O)O` [GA3, Gibberellin A3] was tested, and the “Repression of root transcript abundance of LRD7Ag relative to untreated WW control” value (LRD7Ag) was 5 fold, the “Effect of GA treatment on lateral root number and density” value (TL and P76 seedlings; P76, LW) was “restored lateral root number and density to WW levels” and the “Lateral Root (PR)” value (TL and P76 seedlings; P76, LW (+GA3)) was 23 ± 3^b. For the same compound, the “Lateral Root Density” value (TL and P76 seedlings; P76, LW (+GA3)) was 0.96 ± 0.1^b cm^−1, the “Primary Root Length” value (TL and P76 seedlings; P76, LW (+GA3)) was 23.9 ± 2.2^b cm and the “Lateral Root (PR)” value (TL and P76 seedlings; P76, WW (+GA3)) was 24 ± 4. The “Lateral Root Density” value (TL and P76 seedlings; P76, WW (+GA3)) was 0.96 ± 0.1 cm⁻¹, the “Primary Root Length” value (TL and P76 seedlings; P76, WW (+GA3)) was 25.5 ± 2.8 cm and the “Effect of GA treatment on roots” value (TL and P76 seedlings; P76 and TL, WW conditions) was “had no effect on roots of either genotype”. The “Effect of GA treatment on lateral root number and density” value (TL and P76 seedlings; TL, LW) was “increased the TL lateral root number and density under LW to above the untreated values”, the “Lateral Root (PR)” value (TL and P76 seedlings; TL, LW (+GA3)) was 38 ± 4^b and the “Lateral Root Density” value (TL and P76 seedlings; TL, LW (+GA3)) was 1.44 ± 0.1^b cm^−1. The “Primary Root Length” value (TL and P76 seedlings; TL, LW (+GA3)) was 26.4 ± 2.4 cm, the “Lateral Root (PR)” value (TL and P76 seedlings; TL, WW (+GA3)) was 24 ± 5 and the “Lateral Root Density” value (TL and P76 seedlings; TL, WW (+GA3)) was 0.89 ± 0.2 cm⁻¹. The “LRD7Ta expression in roots compared to LW (no GA) roots” value (LRD7Ta) was “down-regulated” and the “LRD7Ta expression in roots compared to LW (no GA) roots” value (LRD7Ta; listed as GA) was “decreased LRD7Ta expression”.
